# According to patent US7034036B2, “Inhibitors of ABC drug transporters at the blood-brain barrier” (Pain Therapeutics, Inc., priority 2000, dated 2006):
# Test system: mice
# Assay: Tail flick anti-nociception, naltrexone given with morphine from day 1 (Groups C, D, combined analysis)
# Format: in vivo
# Set-up: Enhancement of Latency (tail flick) / Enhancement of Latency by Naltrexone (tail flick): unit not given here
# Method: In a third series of experiments, 40 male mice were randomized into 5 groups of eight. All mice were administered single 3 mg/kg morphine daily (b.i.d.), beginning on Day 1.
# In a final series of experiments, 40 female mice were randomized into 5 groups of eight. All mice were administered single 3 mg/kg morphine daily (b.i.d.), beginning on Day 1.
structure (smiles),measurement,setting,value
"O=C1CC[C@@]2(O)[C@H]3Cc4ccc(O)c5c4[C@@]2(CCN3CC2CC2)[C@H]1O5 [Naltrexone, naltrexone]",Enhancement of Latency by Naltrexone (tail flick),"female mice, Group 4: morphine 3 mg/kg + naltrexone 300 ng/kg b.i.d. from day 1, Day 3",10.3
same,Enhancement of Latency by Naltrexone (tail flick),"female mice, Group 4: morphine 3 mg/kg + naltrexone 300 ng/kg b.i.d. from day 1, Day 5",1.9
same,Enhancement of Latency by Naltrexone (tail flick),"female mice, Group 4: morphine 3 mg/kg + naltrexone 300 ng/kg b.i.d. from day 1, Day 7",0.2
same,Enhancement of Latency by Naltrexone (tail flick),"female mice, Group 4: morphine 3 mg/kg + naltrexone 300 ng/kg b.i.d. from day 1, Day 10",5.9
same,Enhancement of Latency by Naltrexone (tail flick),"female mice, Group 4: morphine 3 mg/kg + naltrexone 300 ng/kg b.i.d. from day 1, Day 11, single bolus 10 μg/kg naltrexone in addition",0.8
same,Enhancement of Latency by Naltrexone (tail flick),"female mice, Group 5: morphine 3 mg/kg + naltrexone 3000 ng/kg b.i.d. from day 1, Day 1",12.3
same,Enhancement of Latency by Naltrexone (tail flick),"female mice, Group 5: morphine 3 mg/kg + naltrexone 3000 ng/kg b.i.d. from day 1, Day 3",9.6
same,Enhancement of Latency by Naltrexone (tail flick),"female mice, Group 5: morphine 3 mg/kg + naltrexone 3000 ng/kg b.i.d. from day 1, Day 5",3.4
same,Enhancement of Latency by Naltrexone (tail flick),"female mice, Group 5: morphine 3 mg/kg + naltrexone 3000 ng/kg b.i.d. from day 1, Day 7",1.9
same,Enhancement of Latency by Naltrexone (tail flick),"female mice, Group 5: morphine 3 mg/kg + naltrexone 3000 ng/kg b.i.d. from day 1, Day 10",6.7
same,Enhancement of Latency by Naltrexone (tail flick),"female mice, Group 5: morphine 3 mg/kg + naltrexone 3000 ng/kg b.i.d. from day 1, Day 11, single bolus 10 μg/kg naltrexone in addition",−0.7
same,Latency versus other doses,"female mice, dose 0.3 ng/kg as printed, not significantly different from 0.03 or 3 ng/kg",gave the longest latency
same,Latency versus other concentrations,"male mice, Groups A and C combined, days 8 and 10, naltrexone at 300 ng",gave the greatest latency
same,Enhancement of Latency by Naltrexone (tail flick),"male mice, Group 2: morphine 3 mg/kg + naltrexone 3 ng/kg b.i.d. from day 1, Day 1",13.3
same,Enhancement of Latency by Naltrexone (tail flick),"male mice, Group 2: morphine 3 mg/kg + naltrexone 3 ng/kg b.i.d. from day 1, Day 3",7.5
same,Enhancement of Latency by Naltrexone (tail flick),"male mice, Group 2: morphine 3 mg/kg + naltrexone 3 ng/kg b.i.d. from day 1, Day 5",4.5
same,Enhancement of Latency by Naltrexone (tail flick),"male mice, Group 2: morphine 3 mg/kg + naltrexone 3 ng/kg b.i.d. from day 1, Day 8",5.5
same,Enhancement of Latency by Naltrexone (tail flick),"male mice, Group 2: morphine 3 mg/kg + naltrexone 3 ng/kg b.i.d. from day 1, Day 10",2.7
same,Enhancement of Latency by Naltrexone (tail flick),"male mice, Group 2: morphine 3 mg/kg + naltrexone 3 ng/kg b.i.d. from day 1, Day 12, single bolus 10 μg/kg naltrexone to every mouse",1.1
same,Enhancement of Latency by Naltrexone (tail flick),"male mice, Group 3: morphine 3 mg/kg + naltrexone 30 ng/kg b.i.d. from day 1, Day 1",12.4
same,Enhancement of Latency by Naltrexone (tail flick),"male mice, Group 3: morphine 3 mg/kg + naltrexone 30 ng/kg b.i.d. from day 1, Day 3",9.3
same,Enhancement of Latency by Naltrexone (tail flick),"male mice, Group 3: morphine 3 mg/kg + naltrexone 30 ng/kg b.i.d. from day 1, Day 5",7.5
same,Enhancement of Latency by Naltrexone (tail flick),"male mice, Group 3: morphine 3 mg/kg + naltrexone 30 ng/kg b.i.d. from day 1, Day 8",7.1
same,Enhancement of Latency by Naltrexone (tail flick),"male mice, Group 3: morphine 3 mg/kg + naltrexone 30 ng/kg b.i.d. from day 1, Day 10",3.2
same,Enhancement of Latency by Naltrexone (tail flick),"male mice, Group 3: morphine 3 mg/kg + naltrexone 30 ng/kg b.i.d. from day 1, Day 12, single bolus 10 μg/kg naltrexone to every mouse",−0.8
same,Enhancement of Latency by Naltrexone (tail flick),"male mice, Group 4: morphine 3 mg/kg + naltrexone 300 ng/kg b.i.d. from day 1, Day 1",16.3
same,Enhancement of Latency by Naltrexone (tail flick),"male mice, Group 4: morphine 3 mg/kg + naltrexone 300 ng/kg b.i.d. from day 1, Day 3",17.1
same,Enhancement of Latency by Naltrexone (tail flick),"male mice, Group 4: morphine 3 mg/kg + naltrexone 300 ng/kg b.i.d. from day 1, Day 5",11.8
same,Enhancement of Latency by Naltrexone (tail flick),"male mice, Group 4: morphine 3 mg/kg + naltrexone 300 ng/kg b.i.d. from day 1, Day 8",9.4
same,Enhancement of Latency by Naltrexone (tail flick),"male mice, Group 4: morphine 3 mg/kg + naltrexone 300 ng/kg b.i.d. from day 1, Day 10",6.1
same,Enhancement of Latency by Naltrexone (tail flick),"male mice, Group 4: morphine 3 mg/kg + naltrexone 300 ng/kg b.i.d. from day 1, Day 12, single bolus 10 μg/kg naltrexone to every mouse",−0.2
same,Enhancement of Latency by Naltrexone (tail flick),"male mice, Group 5: morphine 3 mg/kg + naltrexone 3000 ng/kg b.i.d. from day 1, Day 1",13.5
same,Enhancement of Latency by Naltrexone (tail flick),"male mice, Group 5: morphine 3 mg/kg + naltrexone 3000 ng/kg b.i.d. from day 1, Day 3",13.0
same,Enhancement of Latency by Naltrexone (tail flick),"male mice, Group 5: morphine 3 mg/kg + naltrexone 3000 ng/kg b.i.d. from day 1, Day 5",12.0
same,Enhancement of Latency by Naltrexone (tail flick),"male mice, Group 5: morphine 3 mg/kg + naltrexone 3000 ng/kg b.i.d. from day 1, Day 8",10.4
same,Enhancement of Latency by Naltrexone (tail flick),"male mice, Group 5: morphine 3 mg/kg + naltrexone 3000 ng/kg b.i.d. from day 1, Day 10",7.4
same,Enhancement of Latency by Naltrexone (tail flick),"male mice, Group 5: morphine 3 mg/kg + naltrexone 3000 ng/kg b.i.d. from day 1, Day 12, single bolus 10 μg/kg naltrexone to every mouse",−0.7
same,Enhancement of latency versus other concentrations,"male mice, naltrexone at 300 ng with morphine 3 mg/kg from day 1, Days 1, 3, 5, 8, 10",significantly greater
same,Latency versus other concentrations,"males and females combined, naltrexone 30 ng/kg and 300 ng/kg, days 1, 3, 5, 6, 8, 10",significantly longer latency
same,Development of tolerance to morphine,naltrexone in combination with morphine,prevents the mice from developing a tolerance to morphine
